Measurements published in patent US9193984B2, “Method for detecting interactions between two and more biological macromolecules” (Korea Basic Science Institute, priority 2008, dated 2015).

Biological target: T1, first construct (TMD-mRFP) in CHO-k1 cells (Homo sapiens, UniProt Q05655, K378R/Y313F)
T1 construct: expressed in transfected cells; host or cells: CHO-k1
Test: Translocation of first construct (TMD-mRFP) toward the cell membrane depending on PMA concentration
Assay type: cell-based, Cricetulus griseus
From the text: In order to optimize the translocation characteristic of the translocation module, the first construct vector (pTMD-mRFP-C3) shown in FIG. 5 was used to determine the optimum concentration of PMA (phorbol-12-myristate-13-acetate), which was used as an external stimulation. Detailed experimental procedures were the same as in FIG. 5.
A cover slip containing the cells in which the first construct and second construct vectors had been introduced was fixed to a perfusion chamber and mounted on the object stage of a confocal laser fluorescence microscope (Carl Zeiss LSM510). Images of the construct vectors were taken before and after external stimulation (treatment with 1 μM PMA).
Translocation efficiency of the first construct using the pTMD-mRFP-C3 vector depending on the concentration of external stimulant PMA was measured as follows. The expression vector of the first construct was transformed into CHO-k1 cells and overexpressed. After 18 hours of culturing, PMA was treated at 1, 5, 10, 20, 40, 50, 80 and 100 nM and 1 and 5 μM.

T1 sequence (Q05655 whole entry Y313F/K378R): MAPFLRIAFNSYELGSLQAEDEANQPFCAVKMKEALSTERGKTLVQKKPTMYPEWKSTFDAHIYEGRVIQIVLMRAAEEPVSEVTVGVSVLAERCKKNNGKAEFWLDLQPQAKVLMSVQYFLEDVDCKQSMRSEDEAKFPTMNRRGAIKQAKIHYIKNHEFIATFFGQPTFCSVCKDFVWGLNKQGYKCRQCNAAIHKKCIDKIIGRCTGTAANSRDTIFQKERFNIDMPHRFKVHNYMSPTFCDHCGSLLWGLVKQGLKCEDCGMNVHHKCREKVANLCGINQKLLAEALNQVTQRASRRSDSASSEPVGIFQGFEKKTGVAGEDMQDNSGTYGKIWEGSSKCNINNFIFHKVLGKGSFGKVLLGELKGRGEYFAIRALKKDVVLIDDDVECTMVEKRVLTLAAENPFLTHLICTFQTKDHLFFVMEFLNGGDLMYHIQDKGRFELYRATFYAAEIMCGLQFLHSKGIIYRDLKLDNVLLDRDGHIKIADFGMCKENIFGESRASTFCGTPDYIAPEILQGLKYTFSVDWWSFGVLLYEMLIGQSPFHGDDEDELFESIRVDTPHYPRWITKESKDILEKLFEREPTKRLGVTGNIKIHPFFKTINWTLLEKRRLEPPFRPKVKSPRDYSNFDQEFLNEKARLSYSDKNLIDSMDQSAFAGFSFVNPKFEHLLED

Which results are given for `CCCCCCCCCCCCCC(=O)O[C@@H]1[C@@H](C)[C@@]2(O)[C@@H](C=C(CO)C[C@]3(O)C(=O)C(C)=C[C@@H]23)[C@@H]2C(C)(C)[C@]12OC(C)=O` [PMA, phorbol-12-myristate-13-acetate]?
cells with translocation of first construct toward the cell membrane (PMA 50 nM, CHO-k1, 200 cells counted): ≥ 90%; movement of red fluorescence toward the cell membrane (PMA 100 nM or higher): increased
